Measurements reported in patent US9908870B2, “Crystalline form of a benzimidazole derivative and a preparation method thereof” (CJ HEALTHCARE CORPORATION, priority 2015, dated 2018).
Values joined by “and” are separate entries in the source; they are usually repeats but may differ in a detail not shown here. Identical values can stand only once.

Tests used:
Type in all cases: physicochemical
[1] = Hygroscopicity test
From the text: Compounds with low hygroscopicity are advantageous in preparing formulations, and also are advantageous for storage. Additionally, compounds with high hygroscopicity are not advantageous in that they are difficult to formulate, and reproducible results may hardly be obtained even though formulations can be successfully achieved.

[2] = Static-electricity inducibility test (bulk density, tapped density, Carr's Index); conditions: for CI (Carr's Index): CI=100×(1−BD/TD), ≦30 value - good flowability
[3] = Crystal stability test under severe stability testing conditions
Method: Finally, a crystal stability test was performed to examine the stability of the crystalline form itself, and the results are shown in Table 4 below.

[4] = Stability test under a photo-stressed condition
[5] = after 4 weeks at 60±2° C., 80±5% RH
[6] = after 4 weeks, photo-stressed condition
[7] = after 4 weeks, photo-stressed condition (1,200,000 lux or higher and 200 W/m^2 or higher)

| Compound | Hygroscopicity ([1]; 33% RH, after 4 weeks) | Hygroscopicity ([1]; 75% RH, after 4 weeks) | Hygroscopicity ([1]; 93% RH, after 4 weeks) | BD (bulk density) [2] | TD (tapped density) [2] | CI (Carr's Index) [2] | Content of impurities (related compounds) [4, 6] [%] | Appearance [4, 7] | Appearance ([4]; initial stage) | Content of impurities (related compounds) ([4]; initial stage) [%] | also measured |
| --- | --- | --- | --- | --- | --- | --- | --- | --- | --- | --- | --- |
| Cc1nc2c(O[C@H]3CCOc4cc(F)cc(F)c43)cc(C(=O)N(C)C)cc2[nH]1 [Crystalline form A, 4-[((4S)-5,7-difluoro-3,4-dihydro-2H-chromen-4-yl)oxy]-N,N,2-trimethyl-1H-benzimidazole-6-carboxamide] | 0.17 | 0.20 | 0.28 | 0.34 g/mL and 0.32 g/mL | 0.45 g/mL | 24.44% and 28.89% | 0.10 | white | white | 0.10 | Hygroscopicity values ([1]; stored at 33%, 75% and 93% relative humidity for 4 weeks): below 0.3; Crystalline form [3, 5]: crystalline form A; DSC [3, 5]: 223 °C; Crystalline form ([3]; initial stage): crystalline form A; DSC ([3]; initial stage): 223 °C; Optical purity [4, 6]: 100%; Content of impurities (related compounds) ([4]; after 4 weeks, photo-stressed condition, listed as crystalline form A): ≤ 0.1%; Content of impurities (related compounds) ([4]; initial stage, listed as crystalline form A): ≤ 0.1% |
| Cc1nc2c(O[C@H]3CCOc4cc(F)cc(F)c43)cc(C(=O)N(C)C)cc2[nH]1 [Non-crystalline form, 4-[((4S)-5,7-difluoro-3,4-dihydro-2H-chromen-4-yl)oxy]-N,N,2-trimethyl-1H-benzimidazole-6-carboxamide] | 1.90 | 4.09 | 5.25 | 0.23 g/mL and 0.22 g/mL | 0.39 g/mL and 0.38 g/mL | 41.02% and 42.11% | 0.49 | yellow | white | 0.16 | Hygroscopicity ([1]; initial stage): 1.32; Increase in content of related compounds ([4]; after 4-week photoexposure vs initial): ≥ 3 fold; Increase in content of optical isomers ([4]; after 4 weeks photo-stressed condition vs initial): 10 fold; Content of optical isomers [4, 6]: 0.47%; Content of optical isomers ([4]; initial stage): 0.04%; Content of impurities (related compounds) ([4]; initial stage, listed as non-crystalline form): 0.16% |
